Reference: patent publication US20040047885A1, “Use of compounds which make it possible to modify the physicochemical properties of the skin and/or the mucous membranes as agents preventing or reducing the adhesion of microorganisms to the latter” (priority 2000, published 2004)
Read-outs that look alike come from different tables or passages of the source.

Tested on: Staphylococcus aureus
Assay type: cell-based
Settings: vs water
Procedure: These compounds are chosen so that the decimal logarithm of the mean number of viable bacteria adhering to reconstructed epidermis, after a test consisting in bringing the said epidermis into contact with the test compound for 2 hours at 37° C., is at least 0.3 less than that obtained by a test carried out with water under the same conditions.
The reconstructed epidermis used in the test indicated above is reconstructed human epidermis, equivalent to human skin, sold by EPISKIN.
The antiadhesion test corresponds to the protocol below:
Before bacterial adhesion, the reconstructed epidermis is brought into contact for 2 hours with 25 mg of the product to be tested at 37° C. 1 ml of bacterial suspension of Staphylococcus aureus at a concentration of […] in Tryptone salt is then added thereto. After incubating for 24 hours at 37° C., the bacterial suspension is emptied and five rinsings are carried out with 1 ml of sterile distilled water. The epidermis, detached from its support, is then ground with the aid of a food processor in 18 ml of Tryptone salt. A decimal dilution is carried out on this suspension in Tryptone salt, and 1 ml of the dilution is then inoculated into 15 ml of Trypticase Soy agar and the medium is incubated for 24 hours at 37° C. The adherent and viable cells are then counted.
This antiadhesion test makes it possible to evaluate the efficacy of molecules alone or of finished products.
The figures presented opposite the compound correspond to the reduction of the decimal logarithm of the mean number of viable Staphylococcus aureus adhering to reconstructed epidermis after treatment with the compound under the conditions defined by the preceding test compared with the decimal logarithm of the mean number of viable Staphylococcus aureus adhering to reconstructed epidermis after treatment with water under the same conditions.

[1] = reconstructed human epidermis (EPISKIN) contacted 2 hours at 37° C. with 25 mg product, then 24 hours with bacterial suspension

| Compound | reduction of the decimal logarithm of the mean number of viable Staphylococcus aureus adhering to reconstructed epidermis compared with water [1] | reduction of the decimal logarithm of the mean number of viable Staphylococcus aureus adhering to reconstructed epidermis compared with water (tested at 5% active substance, epidermis contacted 2 hours at 37° C.) |
| --- | --- | --- |
| CCCCCCCCOC(=O)CCCCC(=O)OCCCCCCCC [Dioctyl adipate] | 0.90 | – |
| Disodium cocoamphodiacetate | 1.34 | – |
| Tartrate of branched C12-C13 dialcohols | 2.31 | – |
| Ricinoleic monoethanolamide monosulphosuccinate salt | – | 3.84 |
